# Legend:
# Experiment in all cases: relative viability (nuclei count vs DMSO), 5 days (fraction); higher = more cells survive
# NCI-H3122 = tested on: NCI-H3122
# Outline: (§1)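 Five library-drug doses in √10 steps were combined with a fixed anchor-drug dose, or a single drug was given alone, by pin tool to lung cancer cell lines in 1536-well plates the day after seeding. Nuclei were stained and counted after 5 days. Relative viability is the nuclei count in treated wells over that in vehicle wells, taken as the median of duplicate plates.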
# EPLC-272H = tested on: EPLC-272H
# Outline: as §1
# LCLC-103H = tested on: LCLC-103H
# Outline: as §1
# NCI-H2126 = tested on: NCI-H2126
# Outline: as §1
# SW 1573 = tested on: SW 1573
# Outline: as §1
# NCI-H322M = tested on: NCI-H322M
# Outline: as §1
# SK-LU-1 = tested on: SK-LU-1
# Outline: as §1
# NCI-H1975 = tested on: NCI-H1975
# Outline: as §1
# NCI-H2085 = tested on: NCI-H2085
# Outline: as §1
# NCI-H1666 = tested on: NCI-H1666
# Outline: as §1
# ChaGo-K-1 = tested on: ChaGo-K-1
# Outline: as §1
# NCI-H23 = tested on: NCI-H23
# Outline: as §1
# LOU-NH91 = tested on: LOU-NH91
# Outline: as §1
# NCI-H1563 = tested on: NCI-H1563
# Outline: as §1
# LU99A = tested on: LU99A
# Outline: as §1
# HCC-827 = tested on: HCC-827
# Outline: as §1
# HCC-78 = tested on: HCC-78
# Outline: as §1
# EMC-BAC-2 = tested on: EMC-BAC-2
# Outline: as §1
# NCI-H2405 = tested on: NCI-H2405
# Outline: as §1
# LXF-289 = tested on: LXF-289
# Outline: as §1
# RERF-LC-KJ = tested on: RERF-LC-KJ
# Outline: as §1
smiles,measurement,setting,value
Oc1nc(-c2ccc(C(F)(F)F)cc2)nc2c1CSCC2 [XAV939] + CC(C)C[C@H](NC(=O)[C@H](Cc1ccccc1)NC(=O)c1cnccn1)B(O)O [Bortezomib] (partner 0.002 µM),relative viability,NCI-H3122; first compound 0.08 µM,1.09
same,relative viability,NCI-H3122; first compound 0.253 µM,1.01
same,relative viability,NCI-H3122; first compound 0.8 µM,1.03
same,relative viability,NCI-H3122; first compound 2.53 µM,0.944
same,relative viability,EPLC-272H; first compound 0.08 µM,1.05
same,relative viability,EPLC-272H; first compound 0.253 µM,0.816
same,relative viability,EPLC-272H; first compound 0.8 µM,1.02
same,relative viability,EPLC-272H; first compound 2.53 µM,0.91
same,relative viability,LCLC-103H; first compound 0.08 µM,0.936
same,relative viability,LCLC-103H; first compound 0.253 µM,1.11
same,relative viability,LCLC-103H; first compound 0.8 µM,0.861
same,relative viability,LCLC-103H; first compound 2.53 µM,1.01
same,relative viability,NCI-H2126; first compound 0.08 µM,1.18
same,relative viability,NCI-H2126; first compound 0.253 µM,0.984
same,relative viability,NCI-H2126; first compound 0.8 µM,1.08
same,relative viability,NCI-H2126; first compound 2.53 µM,1.02
same,relative viability,SW 1573; first compound 0.08 µM,0.994
same,relative viability,SW 1573; first compound 0.253 µM,1.01
same,relative viability,SW 1573; first compound 0.8 µM,1.1
same,relative viability,SW 1573; first compound 2.53 µM,0.676
same,relative viability,NCI-H322M; first compound 0.08 µM,1.39
same,relative viability,NCI-H322M; first compound 0.253 µM,0.996
same,relative viability,NCI-H322M; first compound 0.8 µM,1.1
same,relative viability,NCI-H322M; first compound 2.53 µM,0.976
same,relative viability,SK-LU-1; first compound 0.08 µM,1.16
same,relative viability,SK-LU-1; first compound 0.253 µM,1.13
same,relative viability,SK-LU-1; first compound 0.8 µM,1.05
same,relative viability,SK-LU-1; first compound 2.53 µM,1.39
same,relative viability,NCI-H1975; first compound 0.08 µM,0.305
same,relative viability,NCI-H1975; first compound 0.253 µM,0.352
same,relative viability,NCI-H1975; first compound 0.8 µM,0.346
same,relative viability,NCI-H1975; first compound 2.53 µM,0.349
same,relative viability,NCI-H2085; first compound 0.08 µM,1.02
same,relative viability,NCI-H2085; first compound 0.253 µM,1.03
same,relative viability,NCI-H2085; first compound 0.8 µM,0.975
same,relative viability,NCI-H2085; first compound 2.53 µM,0.992
same,relative viability,NCI-H1666; first compound 0.08 µM,0.813
same,relative viability,NCI-H1666; first compound 0.253 µM,0.611
same,relative viability,NCI-H1666; first compound 0.8 µM,0.422
same,relative viability,NCI-H1666; first compound 2.53 µM,0.5
same,relative viability,ChaGo-K-1; first compound 0.08 µM,0.967
same,relative viability,ChaGo-K-1; first compound 0.253 µM,0.848
same,relative viability,ChaGo-K-1; first compound 0.8 µM,0.981
same,relative viability,ChaGo-K-1; first compound 2.53 µM,0.941
same,relative viability,NCI-H23; first compound 0.08 µM,0.992
same,relative viability,NCI-H23; first compound 0.253 µM,1.12
same,relative viability,NCI-H23; first compound 0.8 µM,0.989
same,relative viability,NCI-H23; first compound 2.53 µM,0.886
same,relative viability,LOU-NH91; first compound 0.08 µM,0.438
same,relative viability,LOU-NH91; first compound 0.253 µM,0.464
same,relative viability,LOU-NH91; first compound 0.8 µM,0.49
same,relative viability,LOU-NH91; first compound 2.53 µM,0.415
same,relative viability,NCI-H1563; first compound 0.08 µM,0.835
same,relative viability,NCI-H1563; first compound 0.253 µM,0.81
same,relative viability,NCI-H1563; first compound 0.8 µM,0.798
same,relative viability,NCI-H1563; first compound 2.53 µM,0.764
same,relative viability,LU99A; first compound 0.08 µM,1.26
same,relative viability,LU99A; first compound 0.253 µM,0.714
same,relative viability,LU99A; first compound 0.8 µM,1.01
same,relative viability,LU99A; first compound 2.53 µM,1.19
same,relative viability,HCC-827; first compound 0.08 µM,1.03
same,relative viability,HCC-827; first compound 0.253 µM,0.868
same,relative viability,HCC-827; first compound 0.8 µM,1.07
same,relative viability,HCC-827; first compound 2.53 µM,1.09
same,relative viability,HCC-78; first compound 0.08 µM,0.517
same,relative viability,HCC-78; first compound 0.253 µM,0.363
same,relative viability,HCC-78; first compound 0.8 µM,0.526
same,relative viability,HCC-78; first compound 2.53 µM,0.405
same,relative viability,EMC-BAC-2; first compound 0.08 µM,1.11
same,relative viability,EMC-BAC-2; first compound 0.253 µM,0.946
same,relative viability,EMC-BAC-2; first compound 0.8 µM,0.997
same,relative viability,EMC-BAC-2; first compound 2.53 µM,0.636
same,relative viability,NCI-H2405; first compound 0.08 µM,1.04
same,relative viability,NCI-H2405; first compound 0.253 µM,0.719
same,relative viability,NCI-H2405; first compound 0.8 µM,0.893
same,relative viability,NCI-H2405; first compound 2.53 µM,0.959
same,relative viability,LXF-289; first compound 0.08 µM,1.05
same,relative viability,LXF-289; first compound 0.253 µM,0.966
same,relative viability,LXF-289; first compound 0.8 µM,0.994
same,relative viability,LXF-289; first compound 2.53 µM,1.05
same,relative viability,RERF-LC-KJ; first compound 0.08 µM,0.864
same,relative viability,RERF-LC-KJ; first compound 0.253 µM,0.98
same,relative viability,RERF-LC-KJ; first compound 0.8 µM,0.886
same,relative viability,RERF-LC-KJ; first compound 2.53 µM,0.744
